Data as given in paper PMC4187893, “Biochemical and Antiparasitic Properties of Inhibitors of the Plasmodium falciparum Calcium-Dependent Protein Kinase PfCDPK1” (Antimicrobial Agents and Chemotherapy, 2014).
Read-outs that look alike come from different tables or passages of the source.

Key:
PfCDPK1 [1] = target: T1, PfCDPK1 (Plasmodium falciparum, UniProt P62344); details: absence of MTIP; for IC50: mean (SD), n = 2
PbCDPK1 = PbCDPK1 (Plasmodium berghei, UniProt A0A509AHB6); assay: Rh-ParM ADP sensor IC50 assay, PbCDPK1; details: for IC50: read-out: IC50 PbCDPK1, Rh-ParM, absence of MTIP, ATP at Km, mean (SD), n = 2
PbCDPK1, sequence (A0A509AHB6 whole entry): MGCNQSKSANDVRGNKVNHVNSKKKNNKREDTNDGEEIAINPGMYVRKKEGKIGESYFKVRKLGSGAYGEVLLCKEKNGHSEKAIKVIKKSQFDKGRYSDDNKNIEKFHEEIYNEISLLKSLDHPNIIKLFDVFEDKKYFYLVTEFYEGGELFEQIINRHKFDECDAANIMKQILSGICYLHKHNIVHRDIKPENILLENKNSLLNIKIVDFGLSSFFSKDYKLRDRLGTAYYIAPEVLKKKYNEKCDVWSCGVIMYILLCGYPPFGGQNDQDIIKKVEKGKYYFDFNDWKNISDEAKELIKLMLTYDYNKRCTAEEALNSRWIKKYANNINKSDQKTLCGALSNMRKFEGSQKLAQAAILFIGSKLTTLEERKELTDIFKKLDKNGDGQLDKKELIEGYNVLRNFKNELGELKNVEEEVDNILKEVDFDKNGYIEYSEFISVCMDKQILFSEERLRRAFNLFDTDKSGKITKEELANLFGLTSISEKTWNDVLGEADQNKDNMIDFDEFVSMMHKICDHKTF

PvCDPK1 = PvCDPK1 (Plasmodium vivax, UniProt A5KBU9); assay: Rh-ParM ADP sensor IC50 assay, PvCDPK1; details: for IC50: read-out: IC50 PvCDPK1, Rh-ParM, absence of MTIP, ATP at Km, mean (SD), n = 2
PvCDPK1, sequence (A5KBU9 entry or part of it): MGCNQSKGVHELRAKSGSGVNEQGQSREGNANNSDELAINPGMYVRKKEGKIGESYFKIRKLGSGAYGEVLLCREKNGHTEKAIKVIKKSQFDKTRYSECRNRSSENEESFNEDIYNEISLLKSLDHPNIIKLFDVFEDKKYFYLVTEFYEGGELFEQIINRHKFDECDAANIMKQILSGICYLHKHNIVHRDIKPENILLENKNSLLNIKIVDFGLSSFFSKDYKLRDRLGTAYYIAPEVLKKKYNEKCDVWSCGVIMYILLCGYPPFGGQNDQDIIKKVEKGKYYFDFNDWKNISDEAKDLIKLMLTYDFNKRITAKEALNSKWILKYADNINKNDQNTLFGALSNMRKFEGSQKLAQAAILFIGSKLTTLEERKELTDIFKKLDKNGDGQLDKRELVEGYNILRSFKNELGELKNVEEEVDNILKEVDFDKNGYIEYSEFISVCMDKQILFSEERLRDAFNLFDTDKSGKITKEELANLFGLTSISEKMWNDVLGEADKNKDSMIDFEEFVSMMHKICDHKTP

PfCDPK1 [2] = target: T1, PfCDPK1; assay: Kinase-Glo Plus ATP depletion assay; details: read-out: IC50 ATP depletion, ATP and MTIP at their respective Km values
PfCDPK1 [3] = target: T1, PfCDPK1; assay: Radiometric assay, incorporation of 33P into MTIP; details: for IC50 ratio (ATP depletion/radiometric assay): Kinase-Glo Plus IC50 / radiometric IC50; for IC50: read-out: IC50 Radiometric assay, ATP and MTIP at their respective Km values
P. falciparum 3D7 = assay: FACS assay for parasite growth; details: Plasmodium falciparum, 3D7, 48 h, read-out: mean EC50, positive controls in parasite growth assay
PfCDPK1 T145Q = PfCDPK1 T145Q (Plasmodium falciparum, UniProt P62344, T145Q); assay: Rh-ParM ADP sensor assay, gatekeeper mutant T145Q; details: Ki, absence of MTIP
PfCDPK1 T145Q, sequence (P62344 whole entry T145Q): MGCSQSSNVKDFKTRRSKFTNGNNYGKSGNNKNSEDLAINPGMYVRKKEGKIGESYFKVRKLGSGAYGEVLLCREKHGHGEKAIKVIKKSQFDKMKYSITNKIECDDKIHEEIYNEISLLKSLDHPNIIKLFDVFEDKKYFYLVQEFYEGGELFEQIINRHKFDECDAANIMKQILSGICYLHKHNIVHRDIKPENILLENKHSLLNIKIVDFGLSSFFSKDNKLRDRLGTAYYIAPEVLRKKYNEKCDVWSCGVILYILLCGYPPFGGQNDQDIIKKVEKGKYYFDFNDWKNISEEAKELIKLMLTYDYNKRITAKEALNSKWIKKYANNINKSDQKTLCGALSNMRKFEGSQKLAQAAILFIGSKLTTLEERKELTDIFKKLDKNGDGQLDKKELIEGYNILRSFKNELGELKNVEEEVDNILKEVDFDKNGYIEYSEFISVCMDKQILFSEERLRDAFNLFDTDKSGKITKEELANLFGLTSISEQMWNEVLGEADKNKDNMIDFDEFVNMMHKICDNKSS

[4] = read-out: IC50 With 30 μM ATP, 30 μM ATP, Rh-ParM ADP detection
[5] = read-out: IC50 With 1 mM ATP, 1 mM ATP, Rh-ParM ADP detection
[6] = read-out: IC50 PfCDPK1, Rh-ParM, ATP at Km

T1 sequence (P62344 whole entry): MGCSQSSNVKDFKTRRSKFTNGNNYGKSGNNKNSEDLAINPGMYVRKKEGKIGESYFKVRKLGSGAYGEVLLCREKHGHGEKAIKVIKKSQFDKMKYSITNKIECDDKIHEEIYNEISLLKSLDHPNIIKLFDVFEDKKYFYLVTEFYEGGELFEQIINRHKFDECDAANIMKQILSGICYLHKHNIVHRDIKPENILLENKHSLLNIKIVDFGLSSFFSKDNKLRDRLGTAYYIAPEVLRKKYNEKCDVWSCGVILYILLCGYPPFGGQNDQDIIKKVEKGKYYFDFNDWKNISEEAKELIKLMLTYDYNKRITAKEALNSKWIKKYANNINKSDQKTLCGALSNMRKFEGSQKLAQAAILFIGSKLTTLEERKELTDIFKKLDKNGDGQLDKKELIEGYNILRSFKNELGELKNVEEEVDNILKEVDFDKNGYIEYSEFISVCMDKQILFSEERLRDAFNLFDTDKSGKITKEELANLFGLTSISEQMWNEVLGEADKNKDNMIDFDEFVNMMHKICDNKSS

Structure (SMILES)	IC50 (PfCDPK1 [1]; [6])	IC50 ratio PbCDPK1/PfCDPK1 (PbCDPK1)	IC50 (PbCDPK1)	IC50 ratio PvCDPK1/PfCDPK1 (PvCDPK1)	IC50 (PvCDPK1)	also measured
CCc1ccccc1NC(=O)CSc1nccn(-c2ccc(OC)cc2)c1=O [Compound 22]						IC50 ratio (IC50 with 1 mM ATP/IC50 with 30 μM ATP) (PfCDPK1 [1]; Rh-ParM): >3; IC50 (PfCDPK1 [1]; [4]): 34200 nM; IC50 (PfCDPK1 [1]; [5]): > 100000 nM
COc1ccc(NC(=O)CSc2nccn(-c3ccc(OC)cc3)c2=O)cc1 [Compound 23]						IC50 ratio (IC50 with 1 mM ATP/IC50 with 30 μM ATP) (PfCDPK1 [1]; Rh-ParM): >3; IC50 (PfCDPK1 [1]; [4]): 39800 nM; IC50 (PfCDPK1 [1]; [5]): > 100000 nM
COc1ccc(-n2ccnc(SCC(=O)Nc3ccc(C)cc3C)c2=O)cc1 [Compound 24]						IC50 ratio (IC50 with 1 mM ATP/IC50 with 30 μM ATP) (PfCDPK1 [1]; Rh-ParM): >3; IC50 (PfCDPK1 [1]; [4]): 31200 nM; IC50 (PfCDPK1 [1]; [5]): > 100000 nM
CC(C)CCNc1cc(-c2cnc3ccc(NC4CCN(C)CC4)nn23)ccn1 [Compound 27]	138 nM	3.5	479 nM	0.5	68 nM	
CN1CCC(Nc2ccn3ncc(-c4cccc(NC(=O)c5ccccc5)c4)c3n2)CC1 [Compound 28]	40 nM	3.8	152 nM	0.6	24 nM	
CC(C)CNc1ncc(-c2cnc3ccc(NC4CCC(N)CC4)nn23)cn1 (stereo not drawn) [Compound 29]	86 nM	4.6	392 nM	0.9	80 nM	
c1nc(NCC2CC2)ncc1-c1cnc2ccc(NC3CCNCC3)nn12 [Compound 40]	52 nM	4.8	249 nM	0.9	48 nM	
CC(C)CCNc1ccc(-c2cnn3ccc(NC4CCN(C)C4)nc23)cn1 (stereo not drawn) [Compound 41]	73 nM	2.8	206 nM	0.9	68 nM	
CC(C)CCNc1ncc(-c2cnn3ccc(NC4CCN(C)C4)nc23)cn1 (stereo not drawn) [Compound 42]	109 nM	3.2	350 nM	0.9	99 nM	
c1ccc(-n2cc(-c3cnc4ccc(NC5CCNCC5)nn34)cn2)cc1 [Compound 44]	107 nM	4.3	463 nM	0.6	59 nM	
CN(C)C1CCN(c2ccc3ncc(-c4cnc(Nc5ncccc5F)nc4)n3n2)C1 (stereo not drawn) [Compound 45]	19 nM	3.0	58 nM	1.0	19 nM	
Fc1cccnc1Nc1ncc(-c2cnc3ccc(NC4CCC(N5CCNCC5)CC4)nn23)cn1 (stereo not drawn) [Compound 46]	13 nM	2.8	38 nM	0.8	11 nM	
O=C(NCc1ccccc1)c1ccc(-c2cnc3ccc(NCCc4cccnc4)nn23)cc1 [Compound 47]						IC50 (PfCDPK1 [2]): 27 nM; IC50 ratio (ATP depletion/radiometric assay) (PfCDPK1 [3]): 3.9; IC50 (PfCDPK1 [3]): 7 nM
c1cncc(CCNc2ccc3ncc(-c4ccc5c(c4)OCO5)n3n2)c1 [Compound 50]						IC50 (PfCDPK1 [2]): 41 nM; IC50 ratio (ATP depletion/radiometric assay) (PfCDPK1 [3]): 4.1; IC50 (PfCDPK1 [3]): 10 nM
CCc1nc(N)nc(N)c1-c1ccc(Cl)cc1 [Pyrimethamine, reference compound]						EC50 (P. falciparum 3D7): 8 nM
CN[C@@H]1C[C@H]2O[C@@](C)([C@@H]1OC)n1c3ccccc3c3c4c(c5c6ccccc6n2c5c31)C(=O)NC4 [Staurosporine]						difference in potency between wild-type enzyme and T145Q (PfCDPK1 T145Q): no substantial differences
C[C@@H]1CC[C@H]2[C@@H](C)C(=O)O[C@@H]3O[C@@]4(C)CC[C@@H]1[C@]32OO4 [artemisinin, reference compound]						EC50 (P. falciparum 3D7): 13 nM
